System: wild type and multidrug resistant HIV strains
Assay: Antiviral activity against wild type HIV and multidrug resistant patient isolates (PHA-PBMC, p24 Gag production)
Type: cell-based
Settings: for antiviral activity against HIV derived from patient isolates that contain multiple mutations, compared with wild type HIV strains: patients never exposed to the tested compounds; for antiviral potency against multidrug resistant HIV strains compared with wild type: wild type vs multidrug resistant HIV strains
Text: IC50 's for broad spectrum protease inhibitors can be measured against wild type HIV and clinically isolated mutant HIV isolates, utilizing the PHA-PBMC exposed to HIV-1 (50 TCID50 dose/[…] PBMC) as target cells and using the inhibition of p24 Gag protein production as an endpoint. The amounts of p24 antigen produced by the cells can be determined on day 7 in culture using a commercially available radioimmunoassay kit.

Structure (SMILES)	antiviral activity against HIV derived from patient isolates that contain multiple mutations, compared with wild type HIV strains	antiviral potency against multidrug resistant HIV strains compared with wild type
COc1ccc(S(=O)(=O)N(CC(C)C)C[C@@H](O)[C@H](Cc2ccccc2)NC(=O)O[C@H]2CO[C@H]3OCC[C@H]32)cc1 [Compound 1]	equivalent to their activity against wild type HIV strains	equally effective against wild type and mutant HIV strains
CC(C)CN(C[C@@H](O)[C@H](Cc1ccccc1)NC(=O)O[C@H]1CCOC1)S(=O)(=O)c1ccc(N)cc1 [Compound 2, Amprenavir]	much less effective against the same mutant viruses	dramatically less potent against the multidrug resistant strains of HIV
CC(C)(C)NC(=O)[C@@H]1C[C@@H]2CCCC[C@@H]2CN1C[C@@H](O)[C@H](Cc1ccccc1)NC(=O)[C@H](CC(N)=O)NC(=O)c1ccc2ccccc2n1 [Compound 4, Saquinavir]		dramatically less potent against the multidrug resistant strains of HIV
CC(C)c1nc(CN(C)C(=O)N[C@H](C(=O)N[C@@H](Cc2ccccc2)C[C@H](O)[C@H](Cc2ccccc2)NC(=O)OCc2cncs2)C(C)C)cs1 [Compound 5, Ritonavir]		dramatically less potent against the multidrug resistant strains of HIV
CC(C)(C)NC(=O)[C@@H]1CN(Cc2cccnc2)CCN1C[C@@H](O)C[C@@H](Cc1ccccc1)C(=O)N[C@H]1c2ccccc2C[C@H]1O [Compound 6, Indinavir]		dramatically less potent against the multidrug resistant strains of HIV
Cc1c(O)cccc1C(=O)N[C@@H](CSc1ccccc1)[C@H](O)CN1C[C@H]2CCCC[C@H]2C[C@H]1C(=O)NC(C)(C)C [Compound 7, Nelfinavir]		dramatically less potent against the multidrug resistant strains of HIV
